Molecules are shown by their SMILES. pIC50: −log10 of the molar value. Like-named read-outs stand apart in the source and are kept apart here.

This test concerns the target T1, human GPR68 (Homo sapiens, UniProt Q15743).
T1 construct: encoding full-length human GPR68 (uniprot ID: Q15743); expressed in transfected cells; host or cells: HEK293T
The test is described as follows: GPR68 Biochemical Assay (Promega GloSensor cAMP assay, GPR68 antagonism). It is filed as cell-based. As to conditions: 15 min. The procedure, abridged: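 Readout is GloSensor cAMP luminescence after 15 min at room temperature, normalised between pH 5.5 stimulation and pH 8.0 minimum controls; IC50 fitted sigmoidally. Test compounds, up to 50 μM final (9-point half-log, 0.5% DMSO), were co-added with pH 5.5 buffer to HEK293T cells transiently expressing full-length human GPR68 plus GloSensor.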

[1] abbreviates: HEK293T cells transiently expressing hGPR68, antagonism of pH 5.5 stimulated cAMP, read-out: hGPR68 IC50.

T1 sequence (Q15743 whole entry): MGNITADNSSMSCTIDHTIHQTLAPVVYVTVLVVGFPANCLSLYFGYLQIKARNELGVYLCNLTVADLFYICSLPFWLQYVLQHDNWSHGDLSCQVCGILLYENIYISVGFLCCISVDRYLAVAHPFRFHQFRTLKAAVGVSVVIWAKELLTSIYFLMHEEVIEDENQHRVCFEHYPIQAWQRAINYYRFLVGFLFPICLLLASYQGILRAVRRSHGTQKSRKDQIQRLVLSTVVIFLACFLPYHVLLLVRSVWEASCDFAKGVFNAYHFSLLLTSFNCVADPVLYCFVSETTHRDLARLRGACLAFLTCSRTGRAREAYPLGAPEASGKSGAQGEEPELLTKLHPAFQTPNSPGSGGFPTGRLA

For `COCc1nn2c(C(=O)NC3CCC(C)(C)c4ccccc43)ccnc2c1C(N)=O` (centres unmarked) [Compound 186, N7-(4,4-dimethyltetralin-1-yl)-2-(methoxymethyl)pyrazolo[1,5-a]pyrimidine-3,7-dicarboxamide], the pIC50 under setting [1] was 5.30 to 6.30.
Turning to `COCc1nn2c(C(=O)NC3CCc4nccn4C3)ccnc2c1C(N)=O` (centres unmarked) [Compound 187, 2-(methoxymethyl)-N7-(5,6,7,8-tetrahydroimidazo[1,2-a]pyridin-6-yl)pyrazolo[1,5-a]pyrimidine-3,7-dicarboxamide], the pIC50 under setting [1] was 5.30 to 6.30.
As to `COCc1nn2c(C(=O)NC3CCc4cncn4C3)ccnc2c1C(N)=O` (centres unmarked) [Compound 188, 2-(methoxymethyl)-N7-(5,6,7,8-tetrahydroimidazo[1,5-a]pyridin-6-yl)pyrazolo[1,5-a]pyrimidine-3,7-dicarboxamide], the pIC50 under setting [1] was 5.30 to 6.30.
For `COCc1nn2c(C(=O)NC3CCS(=O)(=O)c4ccccc43)ccnc2c1C(N)=O` (centres unmarked) [Compound 189, N7-(1,1-dioxo-3,4-dihydro-2H-thiochromen-4-yl)-2-(methoxymethyl)pyrazolo[1,5-a]pyrimidine-3,7-dicarboxamide], the negative-log IC50 (pIC50) under setting [1] was more than 7.30.
Take `COCc1nn2c(C(=O)NC3CCc4ncsc4C3)ccnc2c1C(N)=O` (centres unmarked) [Compound 190, 2-(methoxymethyl)-N7-(4,5,6,7-tetrahydro-1,3-benzothiazol-6-yl)pyrazolo[1,5-a]pyrimidine-3,7-dicarboxamide]: the negative logarithm of the IC50 (pIC50) under setting [1] is 6.30 to 7.30.
Consider `COCc1nn2c(C(=O)NC3COc4c(F)cc(F)cc43)ccnc2c1C(N)=O` (centres unmarked) [Compound 191, N7-(5,7-difluoro-2,3-dihydrobenzofuran-3-yl)-2-(methoxymethyl)pyrazolo[1,5-a]pyrimidine-3,7-dicarboxamide], for which the pIC50 under setting [1] is more than 7.30.
With `COCc1nn2c(C(=O)NC3COc4c(F)cccc43)ccnc2c1C(N)=O` (centres unmarked) [Compound 192, N7-(7-fluoro-2,3-dihydrobenzofuran-3-yl)-2-(methoxymethyl)pyrazolo[1,5-a]pyrimidine-3,7-dicarboxamide], the pIC50 under setting [1] was more than 7.30.
For `COCc1nn2c(C(=O)N[C@H]3CCCc4ccccc43)ccnc2c1C(N)=O` [Compound 193, 2-(methoxymethyl)-N7-[(1S)-tetralin-1-yl]pyrazolo[1,5-a]pyrimidine-3,7-dicarboxamide], the negative logarithm of the IC50 (pIC50) under setting [1] was more than 7.30.
In the case of `COCc1nn2c(C(=O)NC3Cc4ccc(F)cc4C3)ccnc2c1C(N)=O` (centres unmarked) [Compound 194, N7-(5-fluoroindan-2-yl)-2-(methoxymethyl)pyrazolo[1,5-a]pyrimidine-3,7-dicarboxamide], under setting [1], the pIC50 is more than 7.30.
With `COCc1nn2c(C(=O)NC3Cc4cc(F)c(F)cc4C3)ccnc2c1C(N)=O` [Compound 195, N7-(5,6-difluoroindan-2-yl)-2-(methoxymethyl)pyrazolo[1,5-a]pyrimidine-3,7-dicarboxamide], under setting [1], the pIC50 was more than 7.30.
Consider `COCc1nn2c(C(=O)NC3COc4ccc(F)cc4C3)ccnc2c1C(N)=O` (centres unmarked) [Compound 196, N7-(6-fluorochroman-3-yl)-2-(methoxymethyl)pyrazolo[1,5-a]pyrimidine-3,7-dicarboxamide], for which the pIC50 under setting [1] is more than 7.30.
As for `COCc1nn2c(C(=O)NCc3ccc(O)cc3)ccnc2c1C(N)=O` [Compound 197, N7-[(4-hydroxyphenyl)methyl]-2-(methoxymethyl)pyrazolo[1,5-a]pyrimidine-3,7-dicarboxamide], the pIC50 under setting [1] is 5.30 to 6.30.
Turning to `COCc1nn2c(C(=O)N[C@H]3CC(C)(C)c4ccccc43)ccnc2c1C(N)=O` [Compound 198, 2-(methoxymethyl)-N7-[(1S)-3,3-dimethylindan-1-yl]pyrazolo[1,5-a]pyrimidine-3,7-dicarboxamide], the pIC50 under setting [1] was 6.30 to 7.30.
Consider `COCc1nn2c(C(=O)NCc3ccccc3OC)ccnc2c1C(N)=O` [Compound 199, 2-(methoxymethyl)-N7-[(2-methoxyphenyl)methyl]pyrazolo[1,5-a]pyrimidine-3,7-dicarboxamide], for which the negative-log IC50 (pIC50) under setting [1] is 6.30 to 7.30.
For the molecule `COCc1nn2c(C(=O)N[C@@H]3Cc4ccccc4[C@@H]3C)ccnc2c1C(N)=O` [Compound 201], the pIC50 under setting [1] was more than 7.30.
In the case of `CCOCc1nn2c(C(=O)NC3Cc4ccccc4C3)ccnc2c1C(N)=O` [Compound 202, 2-(ethoxymethyl)-N7-indan-2-yl-pyrazolo[1,5-a]pyrimidine-3,7-dicarboxamide], the pIC50 under setting [1] is more than 7.30.
As for `NC(=O)c1c(C2CCCO2)nn2c(C(=O)N[C@H]3C[C@@H](OC(F)(F)F)C3)ccnc12` (stereo partly drawn) [Compound 203, 2-tetrahydrofuran-2-yl-N7-[cis-3-(trifluoromethoxy)cyclobutyl]pyrazolo[1,5-a]pyrimidine-3,7-dicarboxamide], the negative-log IC50 (pIC50) under setting [1] is 6.30 to 7.30.
Consider `NC(=O)c1c(CO)nn2c(C(=O)NC3Cc4ccccc4C3)ccnc12` [Compound 204, 2-(hydroxymethyl)-N7-indan-2-yl-pyrazolo[1,5-a]pyrimidine-3,7-dicarboxamide], for which the pIC50 under setting [1] is 6.30 to 7.30.
In the case of `CCOCc1nn2c(C(=O)N[C@H]3C[C@@H](OC(F)(F)F)C3)ccnc2c1C(N)=O` [Compound 205, 2-(ethoxymethyl)-N7-[cis-3-(trifluoromethoxy)cyclobutyl]pyrazolo[1,5-a]pyrimidine-3,7-dicarboxamide], the pIC50 under setting [1] is 6.30 to 7.30.
For `COCc1nn2c(C(=O)N[C@H]3C[C@@H](OC(F)(F)F)C3)cc(C)nc2c1C(N)=O` [Compound 206, 2-(methoxymethyl)-5-methyl-N7-[cis-3-(trifluoromethoxy)cyclobutyl]pyrazolo[1,5-a]pyrimidine-3,7-dicarboxamide], the negative-log IC50 (pIC50) under setting [1] is 6.30 to 7.30.
Consider `NC(=O)c1c(CO)nn2c(C(=O)NC3CC(F)(F)C3)ccnc12` [Compound 207, N7-(3,3-difluorocyclobutyl)-2-(hydroxymethyl)pyrazolo[1,5-a]pyrimidine-3,7-dicarboxamide], for which the pIC50 under setting [1] was 5.30 to 6.30.
Consider `NC(=O)c1c(C2CC2)nc2c(C(=O)NC3Cc4cscc4C3)ccnn12` [Compound 208, 2-cyclopropyl-N8-(5,6-dihydro-4H-cyclopenta[c]thiophen-5-yl)imidazo[1,2-b]pyridazine-3,8-dicarboxamide], for which the pIC50 under setting [1] is more than 7.30.
On to `NC(=O)c1c(C2CC2)nc2c(C(=O)NC3CC(F)(F)c4ccccc43)ccnn12` (centres unmarked) [Compound 209, 2-cyclopropyl-N8-(3,3-difluoroindan-1-yl)imidazo[1,2-b]pyridazine-3,8-dicarboxamide], for which the pIC50 under setting [1] is more than 7.30.
Take `NC(=O)c1c(C2CC2)nc2c(C(=O)NC3Cc4ccccc43)ccnn12` (centres unmarked) [Compound 210, N8-(7-bicyclo[4.2.0]octa-1,3,5-trienyl)-2-cyclopropyl-imidazo[1,2-b]pyridazine-3,8-dicarboxamide]: the pIC50 under setting [1] is more than 7.30.
Take `NC(=O)c1c(C2CC2)nc2c(C(=O)N[C@H]3CCOc4cc(F)ccc43)ccnn12` [Compound 211, 2-cyclopropyl-N8-[(4S)-7-fluorochroman-4-yl]imidazo[1,2-b]pyridazine-3,8-dicarboxamide]: the negative logarithm of the IC50 (pIC50) under setting [1] was more than 7.30.
As for `COCc1nc2c(C(=O)NC3CCC(F)(F)CC3)ncnn2c1C(N)=O` [Compound 212, N4-(4,4-difluorocyclohexyl)-6-(methoxymethyl)imidazo[2,1-f][1,2,4]triazine-4,7-dicarboxamide], under setting [1], the pIC50 is 6.30 to 7.30.
In the case of `CC(C)(O)c1nn2c(C(=O)NC3CC(F)(F)C3)ccnc2c1C(N)=O` [Compound 213, N7-(3,3-difluorocyclobutyl)-2-(1-hydroxy-1-methyl-ethyl)pyrazolo[1,5-a]pyrimidine-3,7-dicarboxamide], for the setting “hGPR68 IC50, HEK293T cells transiently expressing hGPR68, antagonism of pH 5.5 stimulated cAMP”, the pIC50 was 6.30 to 7.30.
Consider `CSCc1nn2c(C(=O)NC3Cc4ccccc4C3)ccnc2c1C(N)=O` [Compound 214, N7-indan-2-yl-2-(methylsulfanylmethyl)pyrazolo[1,5-a]pyrimidine-3,7-dicarboxamide], for which the pIC50 under setting [1] is more than 7.30.
As for `CS(=O)(=O)Cc1nn2c(C(=O)NC3Cc4ccccc4C3)ccnc2c1C(N)=O` [Compound 215, N7-indan-2-yl-2-(methylsulfonylmethyl)pyrazolo[1,5-a]pyrimidine-3,7-dicarboxamide], the negative-log IC50 (pIC50) under setting [1] was 6.30 to 7.30.
As to `NC(=O)c1c(COC2CC2)nn2c(C(=O)N[C@H]3C[C@@H](OC(F)(F)F)C3)ccnc12` [Compound 216, 2-(cyclopropoxymethyl)-N7-[cis-3-(trifluoromethoxy)cyclobutyl]pyrazolo[1,5-a]pyrimidine-3,7-dicarboxamide], the negative logarithm of the IC50 (pIC50) under setting [1] was more than 7.30.
In the case of `CSCc1nn2c(C(=O)N[C@H]3C[C@@H](OC(F)(F)F)C3)ccnc2c1C(N)=O` [Compound 217, 2-(methylsulfanylmethyl)-N7-[cis-3-(trifluoromethoxy)cyclobutyl]pyrazolo[1,5-a]pyrimidine-3,7-dicarboxamide], under setting [1], the negative logarithm of the IC50 (pIC50) was more than 7.30.
Take `COCc1nc2c(C(=O)NC3CCC(F)(F)CC3)cc(C)nn2c1C(N)=O` [Compound 218, N8-(4,4-difluorocyclohexyl)-2-(methoxymethyl)-6-methyl-imidazo[1,2-b]pyridazine-3,8-dicarboxamide]: the pIC50 under setting [1] was 6.30 to 7.30.
Regarding `COCc1nc2c(C(=O)N[C@@H]3CCS(=O)(=O)c4ccccc43)ccnn2c1C(N)=O` [Compound 219, 2-(methoxymethyl)-N8-[(4R)-1,1-dioxo-3,4-dihydro-2H-thiochromen-4-yl]imidazo[1,2-b]pyridazine-3,8-dicarboxamide], the pIC50 under setting [1] is more than 7.30.
`COCc1nc2c(C(=O)N[C@H]3CCS(=O)(=O)c4ccccc43)ccnn2c1C(N)=O` [Compound 220, 2-(methoxymethyl)-N8-[(4S)-1,1-dioxo-3,4-dihydro-2H-thiochromen-4-yl]imidazo[1,2-b]pyridazine-3,8-dicarboxamide]: the pIC50 under setting [1] was 6.30 to 7.30.
As for `COCc1nc2c(C(=O)NC3CCS(=O)(=O)c4ccccc43)ccnn2c1C(N)=O` (centres unmarked) [Compound 221, N8-(1,1-dioxo-3,4-dihydro-2H-thiochromen-4-yl)-2-(methoxymethyl)imidazo[1,2-b]pyridazine-3,8-dicarboxamide], the negative logarithm of the IC50 (pIC50) under setting [1] is 6.30 to 7.30.

The values above are taken from patent publication US20260308159A1, “BICYCLIC HETEROARYLAMIDES HAVING GPR68 MODULATING ACTIVITY” (RECURSION PHARMACEUTICALS, INC., priority 2023, published 2026).
